Measurements from ChEMBL document CHEMBL3885881, “DrugMatrix”.

Species on record: Rattus norvegicus
Test: DrugMatrix - Regimen: Daily Repeat
Format: toxicity, organism-based, Sprague-Dawley
Parameters: regimen Daily Repeat, gender Male, age 6-8 weeks
Settings: in vivo, po, 50 mg/kg, route oral GAVAGE, dose level Low, vehicle 100 % WATER; for ABSOLUTE BASOPHIL / ABSOLUTE EOSINOPHIL / ABSOLUTE LYMPHOCYTE / ABSOLUTE MONOCYTE / ABSOLUTE SEGMENTED NEUTROPHIL / BASOPHIL / EOSINOPHIL / ERYTHROCYTE COUNT / HEMATOCRIT / HEMOGLOBIN / LEUKOCYTE COUNT / LYMPHOCYTE / MEAN CORPUSCULAR HEMOGLOBIN / MEAN CORPUSCULAR HEMOGLOBIN CONCENTRATION / MEAN CORPUSCULAR VOLUME / MONOCYTE / NEUTROPHIL / NUCLEATED RED BLOOD CELLS / PLATELET COUNT: tissue Blood; for ALANINE AMINOTRANSFERASE / ALBUMIN / ALKALINE PHOSPHATASE / ASPARTATE AMINOTRANSFERASE / BLOOD UREA NITROGEN / CARBON DIOXIDE / CHLORIDE / CHOLESTEROL / CREATINE PHOSPHOKINASE / CREATININE / GLUCOSE / LACTATE DEHYDROGENASE / LIPASE / PHOSPHORUS / POTASSIUM / SODIUM / TOTAL BILIRUBIN / TOTAL PROTEIN / URIC ACID: tissue Plasma

CC[C@H]1OC(=O)[C@H](C)[C@@H](O[C@H]2C[C@@](C)(OC)[C@@H](O)[C@H](C)O2)[C@H](C)[C@@H](O[C@@H]2O[C@H](C)C[C@H](N(C)C)[C@H]2O)[C@](C)(O)C[C@@H](C)CN(C)[C@H](C)[C@@H](O)[C@]1(C)O [AZITHROMYCIN]
ABSOLUTE BASOPHIL (72 h, time 3 day): 0 CELLS/uL | ABSOLUTE EOSINOPHIL (72 h, time 3 day): 0 CELLS/uL | ABSOLUTE LYMPHOCYTE (72 h, time 3 day): 14976.33 CELLS/uL | ABSOLUTE MONOCYTE (72 h, time 3 day): 50 CELLS/uL | ABSOLUTE SEGMENTED NEUTROPHIL (72 h, time 3 day): 1373.67 CELLS/uL | BASOPHIL (72 h, time 3 day): 0% | EOSINOPHIL (72 h, time 3 day): 0% | ERYTHROCYTE COUNT (72 h, time 3 day): 5.24 x10E6/uL | HEMATOCRIT (72 h, time 3 day): 34.53% | HEMOGLOBIN (72 h, time 3 day): 13.33 G/DL | LEUKOCYTE COUNT (72 h, time 3 day): 16.4 x10E3/uL | LYMPHOCYTE (72 h, time 3 day): 91.33% | MEAN CORPUSCULAR HEMOGLOBIN (72 h, time 3 day): 25.5 pg | MEAN CORPUSCULAR HEMOGLOBIN CONCENTRATION (72 h, time 3 day): 38.67 G/DL | MEAN CORPUSCULAR VOLUME (72 h, time 3 day): 65.87 fL | MONOCYTE (72 h, time 3 day): 0.33% | NEUTROPHIL (72 h, time 3 day): 8.33% | NUCLEATED RED BLOOD CELLS (72 h, time 3 day): 0.33 /100WBC | PLATELET COUNT (72 h, time 3 day): 1013.33 x10E3/uL | ALANINE AMINOTRANSFERASE (72 h, time 3 day): 52.67 u/L | ALBUMIN (72 h, time 3 day): 3.97 G/DL | ALKALINE PHOSPHATASE (72 h, time 3 day): 324 u/L | ASPARTATE AMINOTRANSFERASE (72 h, time 3 day): 77 u/L | BLOOD UREA NITROGEN (72 h, time 3 day): 13 mg/dL | CARBON DIOXIDE (72 h, time 3 day): 30 mmol/L | CHLORIDE (72 h, time 3 day): 98.33 MEQ/L | CHOLESTEROL (72 h, time 3 day): 80.67 mg/dL | CREATINE PHOSPHOKINASE (72 h, time 3 day): 196 u/L | CREATININE (72 h, time 3 day): 0.11 mg/dL | GLUCOSE (72 h, time 3 day): 165 mg/dL | LACTATE DEHYDROGENASE (72 h, time 3 day): 154 u/L | LIPASE (72 h, time 3 day): 9.33 u/L | PHOSPHORUS (72 h, time 3 day): 11.37 mg/dL | POTASSIUM (72 h, time 3 day): 6.42 MEQ/L | SODIUM (72 h, time 3 day): 143.1 MEQ/L | TOTAL BILIRUBIN (72 h, time 3 day): 0.2 mg/dL | TOTAL PROTEIN (72 h, time 3 day): 5.87 G/DL | URIC ACID (72 h, time 3 day): 0.83 mg/dL | ABSOLUTE BASOPHIL (120 h, time 5 day): 0 CELLS/uL | ABSOLUTE EOSINOPHIL (120 h, time 5 day): 59.33 CELLS/uL | ABSOLUTE LYMPHOCYTE (120 h, time 5 day): 8956 CELLS/uL | ABSOLUTE MONOCYTE (120 h, time 5 day): 157 CELLS/uL | ABSOLUTE SEGMENTED NEUTROPHIL (120 h, time 5 day): 561 CELLS/uL | BASOPHIL (120 h, time 5 day): 0% | EOSINOPHIL (120 h, time 5 day): 0.67% | ERYTHROCYTE COUNT (120 h, time 5 day): 5.03 x10E6/uL | HEMATOCRIT (120 h, time 5 day): 33.47% | HEMOGLOBIN (120 h, time 5 day): 12.9 G/DL | LEUKOCYTE COUNT (120 h, time 5 day): 9.73 x10E3/uL | LYMPHOCYTE (120 h, time 5 day): 91.67% | MEAN CORPUSCULAR HEMOGLOBIN (120 h, time 5 day): 25.73 pg | MEAN CORPUSCULAR HEMOGLOBIN CONCENTRATION (120 h, time 5 day): 38.57 G/DL | MEAN CORPUSCULAR VOLUME (120 h, time 5 day): 66.63 fL | MONOCYTE (120 h, time 5 day): 1.67% | NEUTROPHIL (120 h, time 5 day): 6% | NUCLEATED RED BLOOD CELLS (120 h, time 5 day): 0 /100WBC | PLATELET COUNT (120 h, time 5 day): 1159 x10E3/uL | ALANINE AMINOTRANSFERASE (120 h, time 5 day): 55.33 u/L | ALBUMIN (120 h, time 5 day): 3.87 G/DL | ALKALINE PHOSPHATASE (120 h, time 5 day): 346 u/L | ASPARTATE AMINOTRANSFERASE (120 h, time 5 day): 85.33 u/L | BLOOD UREA NITROGEN (120 h, time 5 day): 13.33 mg/dL | CARBON DIOXIDE (120 h, time 5 day): 33.67 mmol/L | CHLORIDE (120 h, time 5 day): 98.33 MEQ/L | CHOLESTEROL (120 h, time 5 day): 66.33 mg/dL | CREATINE PHOSPHOKINASE (120 h, time 5 day): 375.33 u/L | CREATININE (120 h, time 5 day): 0.18 mg/dL | GLUCOSE (120 h, time 5 day): 143.67 mg/dL | LACTATE DEHYDROGENASE (120 h, time 5 day): 176.67 u/L | LIPASE (120 h, time 5 day): 12.33 u/L | PHOSPHORUS (120 h, time 5 day): 11.3 mg/dL | POTASSIUM (120 h, time 5 day): 5.91 MEQ/L | SODIUM (120 h, time 5 day): 142.67 MEQ/L | TOTAL BILIRUBIN (120 h, time 5 day): 0.13 mg/dL | TOTAL PROTEIN (120 h, time 5 day): 5.9 G/DL | URIC ACID (120 h, time 5 day): 0.37 mg/dL
